Experimental data reported in patent US11214594B2, “Antimicrobial peptide having synergistic antibacterial effect with antibiotics on multidrug resistant bacteria, and use thereof” (priority 2016, dated 2022).
In brackets after ≈: the same amount, converted by molar mass. Where a SMILES comes first, the peptide text is derived from it. [ ]: non-standard residue; d: D form.

Experiments:
MDREC 1229 = assay: MIC of antibiotic during combined treatment with antimicrobial peptide; type: cell-based, Escherichia coli
Outline: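 Strains in MH medium at 2×10^6 CFU/ml were mixed with peptide diluted stepwise (2:1) from its MIC, then antibiotic dilutions in MH medium were added to give the antibiotic MIC. The reversed set-up, peptide titrated against fixed antibiotic, gave the peptide MIC.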

S. typhimurium = assay: microbe, parasite or virus in culture; type: cell-based, Salmonella typhimurium
Outline: (§1)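 Broth microdilution in MH medium: strains diluted to 2×10^6 CFU were mixed with equal volumes of twofold serial peptide dilutions in MH medium. MIC was taken as the lowest peptide concentration preventing bacterial growth.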

A. baumannii [1] = assay: microbe, parasite or virus in culture; type: cell-based, Acinetobacter baumannii; conditions: for Antibacterial activity relative to PapMA-1: A. baumannii and S. typhimurium
Outline: as §1

MDRAB 12035 = assay: microbe, parasite or virus in culture; type: cell-based, Acinetobacter baumannii
Outline: as §1

[2] = system: multi-drug resistant bacteria; assay: MIC, summary statements for multi-drug resistant bacteria; type: cell-based
Description: For the antibacterial activity, a minimal inhibitory concentration (MIC) of a peptide in which fungus bodies were not split in an MH medium with sufficient nutrients was measured.
Specifically, the strains described in the following [Table 2] were purchased and diluted with an MH medium such that the number of bacteria was 2×10^6 colony-forming units (CFUs), 100 μl of each of the diluted strains was aliquoted into a 96-well microtiter plate, and then 100 μl of a peptide solution diluted with the MH medium (solution diluted stepwise at 2: 1) was added to each well.

S. aureus = assay: microbe, parasite or virus in culture; type: cell-based, Staphylococcus aureus
Outline: as §1

A. baumannii [3] = assay: MIC of antibiotic during combined treatment with antimicrobial peptide; type: cell-based, Acinetobacter baumannii; conditions: for Synergistic effect of antibacterial activity with existing antibiotics compared with PapMA-1: A. baumannii and MDRAB 12035; for Antibiotic MIC, Erythromycin / Antibiotic MIC, Linezolid / Antibiotic MIC, Vancomycin: A. baumannii
Outline: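 Read-out is the MIC of each combined solution, obtained from MH-medium dilutions of antibiotic added well by well, with a reversed-condition run as well.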

[4] = peptide treatment concentration 1 μg/ml
[5] = peptide treatment concentration 2 μg/ml
[6] = peptide treatment concentration 4 μg/ml
[7] = peptide treatment concentration 6 μg/ml
[8] = peptide treatment concentration 8 μg/ml
[9] = peptide treatment concentration 16 μg/ml
[10] = peptide treatment concentration 32 μg/ml
[11] = peptide treatment concentration 64 μg/ml
[12] = combined with peptide at 2 μg/ml
[13] = combined with peptide at 4 μg/ml
[14] = combined with peptide at 6 μg/ml
[15] = combined with peptide at 8 μg/ml
[16] = combined with peptide at 16 μg/ml
[17] = combined with peptide at 32 μg/ml
[18] = combined with peptide at 64 μg/ml
[19] = combined with peptide at 1 μg/ml

CC[C@H](C)[C@H](NC(=O)[C@H](CCCCN)NC(=O)[C@H](Cc1c[nH]c2ccccc12)NC(=O)[C@@H](N)CCCNC(=N)N)C(=O)N[C@@H](Cc1ccccc1)C(=O)N[C@@H](CCCCN)C(=O)N[C@@H](CCCCN)C(=O)N[C@H](C(=O)N[C@H](CC(C)C)C(=O)N[C@@H](CCCCN)C(=O)N[C@@H](CC(C)C)C(=O)N[C@@H](CC(C)C)C(=O)N[C@@H](Cc1c[nH]cn1)C(=O)N[C@@H](CCC(=O)O)C(=O)N[C@@H](C)C(=O)N[C@@H](CCCCN)C(=O)N[C@@H](CCCCN)C(=O)N[C@@H](Cc1c[nH]c2ccccc12)C(N)=O)[C@@H](C)CC [PapMA-24, RWK IFK KIl KLL HEA KKW-NH2] (H-RWKIFKKI[dL]KLLHEAKKW-NH2; N-terminus assumed)
Antibiotic MIC, Erythromycin (MDREC 1229; [4]): 128 µg/mL | Antibiotic MIC, Linezolid (MDREC 1229; [4]): >128 µg/mL | Antibiotic MIC, Vancomycin (MDREC 1229; [4]): >128 µg/mL | Antibiotic MIC, Erythromycin (MDREC 1229; [5]): 64 µg/mL | Antibiotic MIC, Linezolid (MDREC 1229; [5]): 128 µg/mL | Antibiotic MIC, Vancomycin (MDREC 1229; [5]): >128 µg/mL | Antibiotic MIC, Erythromycin (MDREC 1229; [6]): 32 µg/mL | Antibiotic MIC, Linezolid (MDREC 1229; [6]): 64 µg/mL | Antibiotic MIC, Vancomycin (MDREC 1229; [6]): >128 µg/mL | Antibiotic MIC, Erythromycin (MDREC 1229; [7]): 8 µg/mL | Antibiotic MIC, Linezolid (MDREC 1229; [7]): 64 µg/mL | Antibiotic MIC, Vancomycin (MDREC 1229; [7]): 64 µg/mL | Antibiotic MIC, Erythromycin (MDREC 1229; [8]): 2 µg/mL | Antibiotic MIC, Linezolid (MDREC 1229; [8]): 32 µg/mL | Antibiotic MIC, Vancomycin (MDREC 1229; [8]): 32 µg/mL | Antibiotic MIC, Erythromycin (MDREC 1229; [9]): 1 µg/mL | Antibiotic MIC, Linezolid (MDREC 1229; [9]): 8 µg/mL | Antibiotic MIC, Vancomycin (MDREC 1229; [9]): 16 µg/mL | Antibiotic MIC, Erythromycin (MDREC 1229; [10]): 0 µg/mL | Antibiotic MIC, Linezolid (MDREC 1229; [10]): 0 µg/mL | Antibiotic MIC, Vancomycin (MDREC 1229; [10]): 0 µg/mL | Antibiotic MIC, Erythromycin (MDREC 1229; [11]): 0 µg/mL | Antibiotic MIC, Linezolid (MDREC 1229; [11]): 0 µg/mL | Antibiotic MIC, Vancomycin (MDREC 1229; [11]): 0 µg/mL | Minimal inhibitory concentration MIC (S. typhimurium): 32 µg/mL (≈ 13.5 µM) | Minimal inhibitory concentration MIC (A. baumannii [1]): 16 µg/mL (≈ 6.77 µM) | Peptide MIC, peptide alone (A. baumannii [1]): 16 µg/mL | Antibacterial activity relative to PapMA-1 (A. baumannii [1]): at least twice as high | Minimal inhibitory concentration MIC (MDRAB 12035): 32 µg/mL (≈ 13.5 µM) | Peptide MIC, peptide alone (MDRAB 12035): 32 µg/mL | Antibacterial activity relative to PapMA-1 [2]: twice to four times higher | Minimal inhibitory concentration MIC (S. aureus): >128 µg/mL | Synergistic effect of antibacterial activity with existing antibiotics compared with PapMA-1 (A. baumannii [3]): level similar to that of PapMA-1 peptide | Antibiotic MIC, Erythromycin (A. baumannii [3]; [12]): 32 µg/mL | Antibiotic MIC, Linezolid (A. baumannii [3]; [12]): >128 µg/mL | Antibiotic MIC, Vancomycin (A. baumannii [3]; [12]): 128 µg/mL | Antibiotic MIC, Erythromycin (A. baumannii [3]; [13]): 8 µg/mL | Antibiotic MIC, Linezolid (A. baumannii [3]; [13]): 64 µg/mL | Antibiotic MIC, Vancomycin (A. baumannii [3]; [13]): 64 µg/mL | Antibiotic MIC, Erythromycin (A. baumannii [3]; [14]): 2 µg/mL | Antibiotic MIC, Linezolid (A. baumannii [3]; [14]): 8 µg/mL | Antibiotic MIC, Vancomycin (A. baumannii [3]; [14]): 16 µg/mL | Antibiotic MIC, Erythromycin (A. baumannii [3]; [15]): 0.5 µg/mL | Antibiotic MIC, Linezolid (A. baumannii [3]; [15]): 4 µg/mL | Antibiotic MIC, Vancomycin (A. baumannii [3]; [15]): 8 µg/mL | Antibiotic MIC, Erythromycin (A. baumannii [3]; [16]): 0 µg/mL | Antibiotic MIC, Linezolid (A. baumannii [3]; [16]): 0 µg/mL | Antibiotic MIC, Vancomycin (A. baumannii [3]; [16]): 0 µg/mL | Antibiotic MIC, Erythromycin (A. baumannii [3]; [17]): 0 µg/mL | Antibiotic MIC, Linezolid (A. baumannii [3]; [17]): 0 µg/mL | Antibiotic MIC, Vancomycin (A. baumannii [3]; [17]): 0 µg/mL | Antibiotic MIC, Erythromycin (A. baumannii [3]; [18]): 0 µg/mL | Antibiotic MIC, Linezolid (A. baumannii [3]; [18]): 0 µg/mL | Antibiotic MIC, Vancomycin (A. baumannii [3]; [18]): 0 µg/mL

CC[C@H](C)[C@H](NC(=O)[C@H](CCCCN)NC(=O)[C@H](Cc1c[nH]c2ccccc12)NC(=O)[C@@H](N)CCCNC(=N)N)C(=O)N[C@@H](Cc1ccccc1)C(=O)N[C@@H](CCCCN)C(=O)N[C@@H](CCCCN)C(=O)N[C@H](C(=O)N[C@H](CC(C)C)C(=O)N[C@@H](CCCCN)C(=O)N[C@@H](CC(C)C)C(=O)N[C@@H](CC(C)C)C(=O)N[C@@H](Cc1c[nH]cn1)C(=O)N[C@@H](CCC(=O)O)C(=O)N[C@@H](Cc1ccccc1)C(=O)N[C@@H](CCCCN)C(=O)N[C@@H](CCCCN)C(=O)N[C@@H](Cc1ccccc1)C(N)=O)[C@@H](C)CC [PapMA-23, RWK IFK KIl KLL HEF KKF-NH2] (H-RWKIFKKI[dL]KLLHEFKKF-NH2; N-terminus assumed)
Antibiotic MIC, Erythromycin (MDREC 1229; [4]): 128 µg/mL | Antibiotic MIC, Linezolid (MDREC 1229; [4]): >128 µg/mL | Antibiotic MIC, Vancomycin (MDREC 1229; [4]): >128 µg/mL | Antibiotic MIC, Erythromycin (MDREC 1229; [5]): 64 µg/mL | Antibiotic MIC, Linezolid (MDREC 1229; [5]): 128 µg/mL | Antibiotic MIC, Vancomycin (MDREC 1229; [5]): >128 µg/mL | Antibiotic MIC, Erythromycin (MDREC 1229; [6]): 32 µg/mL | Antibiotic MIC, Linezolid (MDREC 1229; [6]): 64 µg/mL | Antibiotic MIC, Vancomycin (MDREC 1229; [6]): >128 µg/mL | Antibiotic MIC, Erythromycin (MDREC 1229; [7]): 8 µg/mL | Antibiotic MIC, Linezolid (MDREC 1229; [7]): 32 µg/mL | Antibiotic MIC, Vancomycin (MDREC 1229; [7]): 128 µg/mL | Antibiotic MIC, Erythromycin (MDREC 1229; [8]): 4 µg/mL | Antibiotic MIC, Linezolid (MDREC 1229; [8]): 32 µg/mL | Antibiotic MIC, Vancomycin (MDREC 1229; [8]): 32 µg/mL | Antibiotic MIC, Erythromycin (MDREC 1229; [9]): 1 µg/mL | Antibiotic MIC, Linezolid (MDREC 1229; [9]): 16 µg/mL | Antibiotic MIC, Vancomycin (MDREC 1229; [9]): 16 µg/mL | Antibiotic MIC, Erythromycin (MDREC 1229; [10]): 0 µg/mL | Antibiotic MIC, Linezolid (MDREC 1229; [10]): 0 µg/mL | Antibiotic MIC, Vancomycin (MDREC 1229; [10]): 0 µg/mL | Antibiotic MIC, Erythromycin (MDREC 1229; [11]): 0 µg/mL | Antibiotic MIC, Linezolid (MDREC 1229; [11]): 0 µg/mL | Antibiotic MIC, Vancomycin (MDREC 1229; [11]): 0 µg/mL | Minimal inhibitory concentration MIC (S. typhimurium): 32 µg/mL (≈ 13.3 µM) | Minimal inhibitory concentration MIC (A. baumannii [1]): 32 µg/mL (≈ 13.3 µM) | Peptide MIC, peptide alone (A. baumannii [1]): 32 µg/mL | Antibacterial activity relative to PapMA-1 (A. baumannii [1]): at least twice as high | Minimal inhibitory concentration MIC (MDRAB 12035): 32 µg/mL (≈ 13.3 µM) | Peptide MIC, peptide alone (MDRAB 12035): 32 µg/mL | Antibacterial activity relative to PapMA-1 [2]: twice to four times higher | Minimal inhibitory concentration MIC (S. aureus): >128 µg/mL | Synergistic effect of antibacterial activity with existing antibiotics compared with PapMA-1 (A. baumannii [3]): level similar to that of PapMA-1 peptide | Antibiotic MIC, Erythromycin (A. baumannii [3]; [19]): 32 µg/mL | Antibiotic MIC, Linezolid (A. baumannii [3]; [19]): >128 µg/mL | Antibiotic MIC, Vancomycin (A. baumannii [3]; [19]): >128 µg/mL | Antibiotic MIC, Erythromycin (A. baumannii [3]; [12]): 32 µg/mL | Antibiotic MIC, Linezolid (A. baumannii [3]; [12]): >128 µg/mL | Antibiotic MIC, Vancomycin (A. baumannii [3]; [12]): >128 µg/mL | Antibiotic MIC, Erythromycin (A. baumannii [3]; [13]): 8 µg/mL | Antibiotic MIC, Linezolid (A. baumannii [3]; [13]): 64 µg/mL | Antibiotic MIC, Vancomycin (A. baumannii [3]; [13]): 64 µg/mL | Antibiotic MIC, Erythromycin (A. baumannii [3]; [14]): 4 µg/mL | Antibiotic MIC, Linezolid (A. baumannii [3]; [14]): 16 µg/mL | Antibiotic MIC, Vancomycin (A. baumannii [3]; [14]): 32 µg/mL | Antibiotic MIC, Erythromycin (A. baumannii [3]; [15]): 0.5 µg/mL | Antibiotic MIC, Linezolid (A. baumannii [3]; [15]): 4 µg/mL | Antibiotic MIC, Vancomycin (A. baumannii [3]; [15]): 8 µg/mL | Antibiotic MIC, Erythromycin (A. baumannii [3]; [16]): 0.25 µg/mL | Antibiotic MIC, Linezolid (A. baumannii [3]; [16]): 2 µg/mL | Antibiotic MIC, Vancomycin (A. baumannii [3]; [16]): 4 µg/mL | Antibiotic MIC, Erythromycin (A. baumannii [3]; [17]): 0 µg/mL | Antibiotic MIC, Linezolid (A. baumannii [3]; [17]): 0 µg/mL | Antibiotic MIC, Vancomycin (A. baumannii [3]; [17]): 0 µg/mL | Antibiotic MIC, Erythromycin (A. baumannii [3]; [18]): 0 µg/mL | Antibiotic MIC, Linezolid (A. baumannii [3]; [18]): 0 µg/mL | Antibiotic MIC, Vancomycin (A. baumannii [3]; [18]): 0 µg/mL
